Converted amounts (≈) assume the structure as drawn.
Experiments:
[1] = tested on: humans or animals; details: cited from earlier work
[2] = room temperature; cited from earlier work
[3] = Reconstitution of lyophilized cake: time, appearance, visual stability (no precipitation or phase separation); format: physicochemical; details: PVP-PLA 90 mg/mL, 75 mM sodium phosphate buffer pH 7.4
Protocol: PVP-PDLLA (POLYMER 1 and POLYMER 2) samples were dissolved in mixtures of water and various amounts of tert-butyl alcohol (TBA). Propofol is then added to the PVP-PDLLA solution. Water is then added to the TBA/PVP-PDLLA/propofol solution to the desired final volume. Final TBA concentration in these solutions was 10-30%. Drug loading levels, % w/w of propofol/(propofol PVP-PDLLA), were also varied from 5, 7, 8, 10, 12, 15 and 20%. Solutions were then frozen in a dry ice/acetone bath and lyophilized for at least 24 hours.
PVP-PDLLA (POLYMER 1) is dissolved directly in water at concentrations between 100 to 350 mg/mL. Propofol is added to the PVP-PDLLA solution and mixed until a homogenous solution is obtained. The solution is then diluted to a concentration of 1% w/v of propofol. 7, 10 and 12% w/w drug loading levels were tested. All solutions were then filtered using 0.2 μm sterile filters and frozen in acetone/dry ice bath or in −80° C. freezer for at least 4 hours before being lyophilized for 48 hours. Solid lyophilized cakes of 7, 10 and 12% w/w were reconstituted by adding water for injection.
PVP-PDLLA (lot # POLYMER 1, POLYMER 2, POLYMER 3, POLYMER 4 and POLYMER 5) is dissolved directly in 100 mM sodium phosphate buffer, pH 7.4, at concentrations between 100 to 350 mg/mL. Propofol is added to the PVP-PDLLA solution and mixed until a homogenous solution is obtained. […]

SMILES	half life ([1]; in vivo)	time to hypnosis from the start of an administration ([1]; intravenous injection of a therapeutic dose)	aqueous solubility [2]	appearance after reconstitution by addition of water [3]
CC(C)c1cccc(C(C)C)c1O [Propofol, 2,6-bis-(1-methylethyl)phenol]	10 to 15 min	≤ 40 s	~154 µg/mL (≈ 864 µM)	
Cc1ccc2ccccc2n1 [quinaldine]				Clear solutions
OCCOc1ccccc1 [2-phenoxyethanol]				Clear solutions

Source: US10561735B2, “Solid formulations of liquid biologically active agents” (Paladin Labs Inc., priority 2004, dated 2020)
